Data as given in publication PMC12968138, “CreSAMT1 is mainly responsible for the biosynthesis of characteristic aroma compound dimethyl anthranilate in Citrus reticulata ‘Chachiensis’” (Horticulture Research, 2025).

How the values were obtained:
CreSAMT2 = tested on: T1, CreSAMT2; assay: GC-MS of methyl ester product, Michaelis-Menten fit; format: biochemical, Citrus reticulata; settings: co-substrate SAM, Tris-HCl, KCl, pH 7.0, 25 °C
T1 construct: His-tagged (pET6xHN), E. coli BL21(DE3), Ni-IDA purified; tag cleavage not mentioned
Excerpt: GC-MS of methyl ester product, Michaelis-Menten fit on CreSAMT2

CreSAMT1 = tested on: T2, CreSAMT1; assay: as above; format: biochemical, Citrus reticulata; settings: co-substrate SAM, Tris-HCl, KCl, pH 7.0, 35 °C
T2 construct: His-tagged (pET6xHN), E. coli BL21(DE3), Ni-IDA purified; tag cleavage not mentioned
Excerpt: GC-MS of methyl ester product, Michaelis-Menten fit on CreSAMT1

Km (CreSAMT2)	Km (CreSAMT1)	Structure (SMILES)	Km (CreSAMT2; sodium salt used)	Km (CreSAMT1; sodium salt used)
53 ± 11.2 µM	101 ± 33.5 µM	O=C(O)c1ccccc1O [SA, salicylic acid]	–	–
–	–	Nc1ccccc1C(=O)O [AA, anthranilate]	18 ± 1.9 µM	4.82 ± 1.53 µM
25 ± 6.89 µM	61.9 ± 30.7 µM	O=C(O)c1ccccc1 [BA, benzoic acid]	–	–

Structure (SMILES)	Km (CreSAMT2)	Km (CreSAMT1)	Km (CreSAMT2; sodium salt used)	Km (CreSAMT1; sodium salt used)
CNc1ccccc1C(=O)O [NMA, N-methyl-2-aminobenzoic acid]	128 ± 58.9 µM	164 ± 98.4 µM	–	–
